Marks after values point to notes of the source that are not given here.
Experiments:
N2a cell mitochondria = assay: Mitochondrial ATP levels (luciferase bioluminescence); assay type: cell-based, mouse; settings: N2a cells
Description: (§1) Tissue culture: The N2a cells were grown for 3 days in a serum-free medium (1:1 mixture of DMEM and OptiMEM, plus penicillin and streptomycin [Invitrogen, Carlsbad, Calif., USA]) until the cells developed neuronal processes.
ATP levels: ATP levels were measured in N2a cell mitochondria from the treatment groups using an ATP determination kit (Molecular Probes). A bioluminescence assay was used, based on the reaction of ATP with recombinant firefly luciferase and its substract luciferin. Luciferase catalyzes the formation of light from ATP and luciferin. It is the emitted light that is linearly related to the concentration of ATP, which is measured with a luminometer. ATP levels were measured from mitochondrial pellets using a standard curve method.

[1] = system: mouse neuroblastoma (N2a) cells; assay: Quantitative real-time RT-PCR: mRNA expression of mitochondrial dynamics, biogenesis and synaptic genes; assay type: cell-based; settings: N2a cells
Description: as §1
Quantitative real-time RT-PCR: Using the reagent TriZol (Invitrogen), total RNA was isolated from cell pellets from the 5 N2a cell groups (FIG. 1). Using primer express software (Applied Biosystems, Carlsbad, Calif., USA), the inventors designed the oligonucleotide primers for the housekeeping genes 3-actin, GAPDH, mitochondrial structural genes, fission genes (Drp1, Fis1), fusion genes (MFN1, MFN2, Opa1), biogenesis genes (PGC1c, Nrf1, Nrf2, TFAM), and synaptic genes (synaptophysin and PSD95) (see Table 1 for primer sequences and amplicon sizes). Using SYBR-Green chemistry-based quantitative real-time RT-PCR, mRNA expressions of the above-mentioned genes were measured, as described by Manczak and Reddy.
The mRNA transcript level was normalized against β-actin and the GAPDH at each dilution. The standard curve was the normalized mRNA transcript level, plotted against the log-value of the input cDNA concentration at each dilution. To compare β-actin, GAPDH, and relative quantification was performed according to the (CT) method (Applied Biosystems). […] The ΔCT-value was obtained by subtracting the average β-actin CT value from the average CT-value of the synaptic mitochondrial ETC genes and the mitochondrial structural genes. The ΔCT of untreated cells was used as the calibrator. The fold change was calculated according to the formula 2^-(Δ ΔCT), where ΔΔCT is the difference between ΔCT and the ΔCT calibrator value. To determine the statistical significance of mRNA expression, the CT value differences between the untreated cells and other experimental groups of cells were used in relation to β-actin normalization. Statistical significance was calculated, using one-way ANOVA.

[2] = system: mouse neuroblastoma (N2a) cells; assay: Immunoblotting analysis of mitochondrial dynamics, biogenesis and synaptic proteins; assay type: cell-based
Description: as §1
Twenty g of protein was resolved from each group of cells on a 4-12% Nu-PAGE gel (Invitrogen). The resolved proteins were transferred to […] (Novax Inc., San Diego, Calif., USA) and were then incubated for 1 hour at room temperature with a blocking buffer (5% dry milk dissolved in a TBST buffer). The PVDF membranes were incubated overnight with primary antibodies (see Table 2) and washed 3 times with a TBST buffer at 10-minute intervals. They were then incubated for 2 hours with appropriate secondary antibodies, followed by 3 additional washes at 10-minute intervals. Mitochondrial and synaptic proteins were detected with cheminilumniscence reagents (Pierce Biotechnology, Rockford, Ill., USA), and the bands from immunoblots were quantified on a Kodak scanner, following manufacturer's instructions (ID Image Analysis Software, Kodak Digital Science, Kennesaw, Ga., USA), and the gel images were analyzed from gel images captured with a Kodak digital science CD camera. The lanes were marked to define the positions and specific regions of the bands. An ID fine-band command was used to locate and to scan the bands in each lane and to record the readings.

[3] = Mdivi1 24 hrs or Aβ42 20 μM 6 hrs alone, vs untreated N2a cells
[4] = Aβ42 6 hrs then Mdivi1 24 hrs (Aβ42+Mdivi1), vs Aβ42 treated cells
[5] = Aβ42 6 hrs then Mdivi1 24 hrs (Aβ42+Mdivi1), vs untreated N2a cells
[6] = Mdivi1 24 hrs then Aβ42 6 hrs (Mdivi1+Aβ42), vs Aβ42 treated cells
[7] = Mdivi1 24 hrs then Aβ42 6 hrs (Mdivi1+Aβ42), vs untreated N2a cells

With `COc1cc(-n2c(S)nc3ccccc3c2=O)c(Cl)cc1Cl` [Mdivi1, 3-(2,4-Dichloro-5-methoxyphenyl)-2,3-dihydro-2-thioxo-4(1H)-quinazolinone] the “Mitochondrial ATP levels” value (N2a cell mitochondria; Aβ42 6 hrs then Mdivi1 24 hrs (Aβ42+Mdivi1), vs Aβ42-treated N2a cells (FIG. 7B)) was “Significantly higher”, the “Mitochondrial ATP levels” value (N2a cell mitochondria; [3]) was “Significantly increased” and the “Mitochondrial ATP levels” value (N2a cell mitochondria; Mdivi1 24 hrs then Aβ42 6 hrs (Mdivi1+Aβ42), vs Aβ42-treated N2a cells (FIG. 7B)) was “Significantly higher”. For the same molecule, the “Drp1 mRNA expression level, lower by fold” value [1, 4] was 1.5 fold, the “Drp1 mRNA fold change” value [1, 4] was −1.5* fold and the “Fis1 mRNA expression level, lower by fold” value [1, 4] was 1.7 fold. For the same molecule, the “Fis1 mRNA fold change” value [1, 4] was −1.7* fold, the “Mfn1 mRNA fold change” value [1, 4] was 1.6 fold and the “Mfn2 mRNA fold change” value [1, 4] was 1.6 fold. The “Nrf1 mRNA fold change” value [1, 4] was 2.0 fold, the “OPA1 mRNA fold change” value [1, 4] was 1.3 fold and the “PGC1α mRNA fold change” value [1, 4] was 8.1 fold. The “Synaptophysin mRNA fold change” value [1, 4] was 1.5 fold, the “CypD mRNA level” value [1, 5] was “unchanged” and the “PGC1α mRNA fold change” value [1, 5] was 1.4 fold. For the same molecule, the “PSD95 mRNA fold change” value [1, 5] was 4.8 fold, the “Synaptophysin mRNA fold change” value [1, 5] was 1.2 fold and the “TFAM mRNA fold change” value [1, 5] was 1.2 fold. For the same molecule, the “Drp1 mRNA fold change” value [1, 3] was −1.5* fold, the “Drp1 mRNA level, fold decrease” value [1, 3] was 1.5 fold and the “Fis1 mRNA fold change” value [1, 3] was −1.3 fold. For the same molecule, the “Fis1 mRNA level, fold decrease” value [1, 3] was 1.3 fold, the “Mfn1 mRNA fold change” value [1, 3] was 1.3 fold and the “Mfn2 mRNA fold change” value [1, 3] was 1.2 fold. The “Nrf1 mRNA fold change” value [1, 3] was 2.2 fold, the “Nrf2 mRNA fold change” value [1, 3] was 1.6 fold and the “OPA1 mRNA fold change” value [1, 3] was 1.2 fold. The “PGC1α mRNA fold change” value [1, 3] was 2.2 fold, the “PSD95 mRNA fold change” value [1, 3] was 5.1 fold and the “Synaptophysin mRNA fold change” value [1, 3] was 1.3 fold. The “TFAM mRNA fold change” value [1, 3] was 1.5 fold, the “Drp1 mRNA expression level, lower by fold” value [1, 6] was 1.5 fold and the “Drp1 mRNA fold change” value [1, 6] was −1.5* fold. The “Fis1 mRNA expression level, lower by fold” value [1, 6] was 1.6 fold, the “Fis1 mRNA fold change” value [1, 6] was −1.6* fold and the “Mfn2 mRNA fold change” value [1, 6] was 2.2 fold. For the same molecule, the “Nrf1 mRNA fold change” value [1, 6] was 2.7 fold, the “Nrf2 mRNA fold change” value [1, 6] was 2.7 fold and the “OPA1 mRNA fold change” value [1, 6] was 2.3 fold. The “PGC1α mRNA fold change” value [1, 6] was 6.5 fold, the “PSD95 mRNA fold change” value [1, 6] was 3.8 fold and the “Synaptophysin mRNA fold change” value [1, 6] was 2.2 fold. The “TFAM mRNA fold change” value [1, 6] was 3.2 fold, the “Drp1 mRNA fold change” value [1, 7] was −1.1 fold and the “Fis1 mRNA fold change” value [1, 7] was −1.2 fold. For the same molecule, the “Mfn1 mRNA fold change” value [1, 7] was 2.1 fold, the “Mfn2 mRNA fold change” value [1, 7] was 1.7 fold and the “Nrf1 mRNA fold change” value [1, 7] was 1.3 fold. For the same molecule, the “Nrf2 mRNA fold change” value [1, 7] was 1.3 fold, the “OPA1 mRNA fold change” value [1, 7] was 1.9 fold and the “PGC1α mRNA fold change” value [1, 7] was 1.1 fold. For the same molecule, the “PSD95 mRNA fold change” value [1, 7] was 1.5 fold, the “Synaptophysin mRNA fold change” value [1, 7] was 1.7 fold and the “TFAM mRNA fold change” value [1, 7] was 1.3 fold. For the same molecule, the Drp1 protein level [2, 4] was “significantly lower”, the Fis1 protein level [2, 4] was “significantly lower” and the Mfn1 protein level [2, 4] was “significantly higher”. The Mfn2 protein level [2, 4] was “significantly higher”, the Nrf1 protein level [2, 4] was “significantly higher” and the Opa1 protein level [2, 4] was “significantly higher”. For the same molecule, the PGC1α protein level [2, 4] was “significantly higher”, the PSD95 protein level [2, 4] was “significantly higher” and the Synaptophysin protein level [2, 4] was “significantly higher”. The TFAM protein level [2, 4] was “significantly higher”, the Drp1 protein level [2, 5] was “Unchanged” and the Fis1 protein level [2, 5] was “Unchanged”. The Drp1 protein level [2, 3] was “significantly lower”, the Fis1 protein level [2, 3] was “significantly lower” and the Mfn1 protein level [2, 3] was “significantly higher”. The Mfn2 protein level [2, 3] was “significantly higher”, the Nrf2 protein level [2, 3] was “significantly higher” and the Opa1 protein level [2, 3] was “significantly higher”. For the same molecule, the PGC1α protein level [2, 3] was “significantly higher”, the TFAM protein level [2, 3] was “significantly higher” and the Drp1 protein level [2, 6] was “significantly lower”. The Fis1 protein level [2, 6] was “significantly lower”, the Mfn1 protein level [2, 6] was “significantly higher” and the Mfn2 protein level [2, 6] was “significantly higher”. The Nrf1 protein level [2, 6] was “significantly higher”, the Nrf2 protein level [2, 6] was “significantly higher” and the Opa1 protein level [2, 6] was “significantly higher”. The PGC1α protein level [2, 6] was “significantly higher”, the PSD95 protein level [2, 6] was “significantly higher” and the Synaptophysin protein level [2, 6] was “significantly higher”. The TFAM protein level [2, 6] was “significantly higher”, the Drp1 protein level [2, 7] was “unchanged” and the Fis1 protein level [2, 7] was “unchanged”.
